Reference: patent publication US6794396B2, “Substituted pyridines useful for inhibiting cholesteryl ester transfer protein activity” (Pharmacia Corporation, priority 1998, dated 2004)
Read-outs that look alike come from different tables or passages of the source.

Key:
CETP = molecular target: T1, CETP (Homo sapiens, UniProt P11597); assay: CETP activity in vitro: transfer of [3H]CE from HDL donor to LDL acceptor particles; assay type: biochemical
T1 construct: made in house; host or cells: CHO cells (serum-free conditioned medium)
T1 sequence (P11597 18-493): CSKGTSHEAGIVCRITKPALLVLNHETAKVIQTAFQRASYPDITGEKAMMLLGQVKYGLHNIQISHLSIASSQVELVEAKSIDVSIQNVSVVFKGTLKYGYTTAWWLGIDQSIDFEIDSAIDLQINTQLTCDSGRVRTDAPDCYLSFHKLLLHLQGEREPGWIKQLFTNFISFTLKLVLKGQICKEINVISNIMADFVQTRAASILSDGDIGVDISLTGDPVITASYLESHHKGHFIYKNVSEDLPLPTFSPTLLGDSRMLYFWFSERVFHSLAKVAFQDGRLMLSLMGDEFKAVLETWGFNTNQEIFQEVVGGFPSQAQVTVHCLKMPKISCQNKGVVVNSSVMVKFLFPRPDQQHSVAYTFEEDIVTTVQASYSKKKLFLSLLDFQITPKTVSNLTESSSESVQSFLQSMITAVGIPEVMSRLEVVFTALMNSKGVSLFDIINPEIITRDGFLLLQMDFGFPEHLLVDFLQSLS
How it was run: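 Transfer of radiolabelled cholesteryl ester from HDL to LDL was followed over 2 h at 37 °C in Tris buffer (pH 7.4, 150 mM NaCl, 2 mM EDTA, 1% BSA), using CETP secreted by transfected CHO cells. Radioactivity in dextran sulfate/Mg-precipitated LDL was measured by scintillation counting, giving IC50.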

[1] = molecular target: T2, CETP in human plasma or serum pool (Homo sapiens, UniProt P11597); assay: Whole serum CETP activity assay (tritiated cholesterol ester); assay type: biochemical; details: 4 hours at 37° C.
T2 construct: from tissue; host or cells: pooled human EDTA plasma or serum from healthy volunteers
T2 sequence (P11597 18-493): T1 sequence (P11597 18-493)
Procedure: Blood was obtained from healthy volunteers recruited from the personnel of Monsanto Company, Saint Louis, Mo. Blood was either collected in tubes containing EDTA (EDTA plasma pool) or in tubes without EDTA (spun to form the serum pool). The EDTA human plasma pool or human serum pool, previously stored at −20° C., was thawed at room temperature, and centrifuged for 5 minutes to remove any particulate matter. Tritiated HDL, radiolabeled in the cholesteryl ester moiety ([^3H]CE-HDL) as described by Morton and Zilversmit (J. Biol. Chem., 256, 11992-95 (1981) which is incorporated by reference herein), was added to the plasma or serum to a final concentration of (25 μg/ml cholesterol).
Inhibitor compounds were added to the plasma or serum as follows: Equal volumes of the plasma or serum containing the [^3H]CE-HDL (396 μl) were pipetted into micro tubes (Titertube®, Bio-Rad Laboratories, Hercules, Calif.). Compounds, usually dissolved as 20-50 mM stock solutions in DMSO, were serially diluted in DMSO (or an alternative solvent in some cases, such as dimethylformamide or ethanol). Four μl of each of the serial dilutions of inhibitor compounds or DMSO alone were then added to each of the plasma or serum tubes. The tubes were immediately mixed. Triplicate aliquots (100 μl) from each plasma or serum tube were then transferred to wells of 96-well round-bottomed polystyrene microtiter plates (Corning, Corning, N.Y.). Plates were sealed with plastic film and incubated at 37° C. for 4 hours.
Test wells contained plasma or serum with dilutions of inhibitor compounds. Control wells contained plasma or serum with DMSO alone. Blank wells contained plasma or serum with DMSO alone that were left in the micro tubes at 4° C. for the 4 hour incubation and were added to the microtiter wells at the end of the incubation period. VLDL and LDL were precipitated by the addition of 10 μl of precipitating reagent (1% (w/v) Dextran Sulfate (Dextralip50)/0.5M magnesium chloride, pH 7.4) to all wells. The wells were mixed on a plate mixer and then incubated at ambient temperature for 10 min. The plates were then centrifuged at 1000×g for 30 mins at 10° C. The supernatants (50 μl) from each well were then transferred to Picoplate™ 96 plate wells (Packard, Meriden, Conn.) containing […] Microscint™-40 (Packard, Meriden, Conn.). The plates were heat-sealed (TopSeal™-P, Packard, Meriden, Conn.) according to the manufacturers directions and mixed for 30 min.
Radioactivity was measured on a microplate scintillation counter (TopCount, Packard, Meriden, Conn.). […] The maximum percent transfer (in the control wells) was determined using the following equation: [formula]
The percent of control transfer determined in the wells containing inhibitor compounds was determined as follows: [formula]
IC50 values were then calculated from plots of % control versus concentration of inhibitor compound.

[2] = IC50(μm), 50% inhibition of [3H]CE transfer from HDL to LDL, 2 hours at 37° C.
[3] = 50% inhibition of [3H]CE transfer from HDL to LDL, 2 hours at 37° C., read-out: IC50(μm)
[4] = Table 6, compounds of formula T-6, read-out: IC50

SMILES	IC50 (CETP; [2]) [µM]	melting point [°C]	IC50 (CETP; [3]) [µM]	further results
COC(=O)c1c(C(F)F)nc(C(F)(F)F)c(C(=O)Sc2ccc(Cl)cc2)c1CC(C)C [Compound 162, Methyl 5-{[(4-chlorophenyl)thio]carbonyl}-2-(difluoromethyl)-4-(2-methylpropyl)-6-(trifluoromethyl)-3-pyridinecarboxylate]	50	94 to 96.5		
COC(=O)c1c(C(F)F)nc(C(F)(F)F)c(C(=O)Sc2cc(Cl)ccc2Cl)c1CC(C)C [Compound 163, Methyl 5-{[(2,5-Dichlorophenyl)thio]carbonyl}-2-(difluoromethyl)-4-(2-methylpropyl)-6-(trifluoromethyl)-3-pyridinecarboxylate]	65	112.5 to 113.5		
COC(=O)c1c(C(F)F)nc(C(F)(F)F)c(C(=O)Sc2c(Cl)cccc2Cl)c1CC(C)C [Compound 164, Methyl 5-{[(2,6-Dichlorophenyl)thio]carbonyl}-2-(difluoromethyl)-4-(2-methylpropyl)-6-(trifluoromethyl)-3-pyridinecarboxylate]	50	109.5 to 112.5		
COC(=O)c1c(C(F)F)nc(C(F)(F)F)c(C(=O)Oc2ccccc2[N+](=O)[O-])c1CC(C)C [Compound 166, 3-Methyl 5-(2-Nitrophenyl) 2-(Difluoromethyl)-4-(2-methylpropyl)-6-(trifluoromethyl)-3,5-pyridicarboxylate]		102.5 to 105.5	> 100	
COC(=O)c1c(C(F)F)nc(C(F)(F)F)c(C(=O)Oc2cc(C(C)(C)C)cc(C(C)(C)C)c2)c1CC(C)C [Compound 167, 3-Methyl 5-(3,5-Di-t-butylphenyl) 2-(Difluoromethyl)-4-(2-methylpropyl)-6-(trifluoromethyl)-3,5-pyridicarboxylate]		100 to 103.5	60	
COC(=O)c1c(C(F)F)nc(C(F)(F)F)c(C(=O)Oc2cc(OC)c(OC)c(OC)c2Cc2ccc(F)cc2)c1CC(C)C [Compound 171, 3-Methyl 5-[2-(4-Fluorobenzyl)-3,4,5-(trimethoxy)phenyl]2-(Difluoromethyl)-4-(2-methylpropyl)-6-(trifluoromethyl)-3,5-pyridicarboxylate]		131.5 to 133.5	70	
COC(=O)c1c(C(F)F)nc(C(F)(F)F)c(C(=O)Oc2ccccc2OC)c1CC(C)C [Compound 172, 3-Methyl 5-(2-Methoxyphenyl) 2-(Difluoromethyl)-4-(2-methylpropyl)-6-(trifluoromethyl)-3,5-pyridicarboxylate]		73 to 74.5	> 100	
COC(=O)c1c(C(F)F)nc(C(F)(F)F)c(C(=O)Oc2ccc(Cl)cc2)c1CC(C)C [Compound 173, 3-Methyl 5-(4-Chlorophenyl) 2-(Difluoromethyl)-4-(2-methylpropyl)-6-(trifluoromethyl)-3,5-pyridicarboxylate]	45	81.5 to 82.5		
COC(=O)c1c(C(F)F)nc(C(F)(F)F)c(C(=O)Oc2cc(C)cc(C)c2)c1CC(C)C [Compound 174, 3-Methyl 5-(3,5-Dimethylphenyl) 2-(Difluoromethyl)-4-(2-methylpropyl)-6-(trifluoromethyl)-3,5-pyridicarboxylate]	60	90.5 to 94		
COC(=O)c1c(C(F)F)nc(C(F)(F)F)c(C(=O)Oc2ccc(C)cc2C)c1CC(C)C [Compound 177, 3-Methyl 5-(2,4-Dimethylphenyl) 2-(Difluoromethyl)-4-(2-methylpropyl)-6-(trifluoromethyl)-3,5-pyridicarboxylate]		95 to 99	70	
COC(=O)c1c(C(F)F)nc(C(F)(F)F)c(SSc2ccc(C(C)(C)C)cc2)c1CC(C)C [Compound 180, Methyl 5-(4-t-Butylphenyldithio)-2-(difluoromethyl)-4-(2-methylpropyl)-6-(trifluoromethyl)-3-pyridinecarboxylate]				IC50 whole serum CETP activity [1]: 9 µM; IC50 (CETP; Table 5, compounds of formula T-5, read-out: IC50): 0.45 µM
COC(=O)c1c(C(F)F)nc(C(F)(F)F)c(CSc2ccc(Cl)c(Cl)c2)c1CC(C)C [Compound 214, Methyl 5-[(3,4-Dichlorophenyl)thiomethyl]-2-(difluoromethyl)-4-(2-methylpropyl)-6-(trifluoromethyl)-3-pyridinecarboxylate]				IC50 whole serum CETP activity [1]: 70 µM; IC50 (CETP; [4]): 2 µM
COC(=O)c1c(C(F)F)nc(C(F)(F)F)c(CSc2ccc3ccccc3c2)c1CC(C)C [Compound 215, Methyl 5-[(2-Naphthyl)thiomethyl]-2-(difluoromethyl)-4-(2-methylpropyl)-6-(trifluoromethyl)-3-pyridinecarboxylate]				IC50 whole serum CETP activity [1]: 110 µM; IC50 (CETP; [4]): 2 µM
